Source: patent publication US8841325B2, “Immunomodulatory compounds for the restoration of vitamin D sensitivity in vitamin D resistant tumor cells” (Celgene Corporation, priority 2009, dated 2014)

Tests used:
MDA-MB-231 cells [1] = assay: Annexin V/PI staining analysed by FACS; assay type: cell-based; details: for necrosis and apoptosis activation (propidium iodide and Annexin V staining): 1 μM lenalidomide or 100 nM 1,25-D3 alone; for necrosis and apoptosis activation (propidium iodide and Annexin V staining) / apoptosis assessed by Annexin V or PI staining: up to 6 days; for apoptosis assessed by Annexin V or PI staining: single agent: 1 nM compound or 100 nM 1,25 D3 alone
Description: Cells were seeded into 6 well plates at a density of 2×10^6 cells/well. Cells were treated with 1 μl/mL DMSO (control) or 1 nM 1-oxo-2-(2,6-dioxopiperidin-3-yl)-4-aminoisoindoline and 100 nM 1,25 D3, each alone or in combination for up to 6 days. Medium was removed by EDTA treatment, and cells were washed twice with ice-cold PBS. Cells were then resuspended into the buffer at a dilution of 1×10^6 cells/mL. 10^5 cells were then stained with Annexin V and Propidium Iodide (“PI”). Staining was analyzed by FACS. Results were expressed as the percentage of control Annexin V or PI staining where the control was cells treated with DMSO only. Results were from triplicate wells.
To assess the nature of MDA-MB-231 cell death (apoptosis or necrosis) induced by co-treatment of lenalidomide/1, 25-D3 cells were seeded into 25 cm2 flasks at a density of 2×10^6 cells/flask. […] Medium was removed by EDTA treatment and cells were washed twice with ice-cold PBS. Cells were then resuspended into the buffer at a dilution of 1×10^6 cells/ml. 10^5 cells were then stained with Annexin V and Iodure Propidium. Staining was analysed by FACS.
Cells were also treated with 0.1% DMSO as a control. […] Cells treated with 0.1% DMSO were used as a control (day 0). Cell lysates were probed for cleaved-PARP(C-PARP) and total PARP (T-PARP). Data shown are representative of three identical experiments.

MDA-MB-231 cells [2] = assay: Cell viability by neutral red assay, MDA-MB-231; assay type: cell-based; details: for effect on cell viability: up to 6 days
Description: Cells were seeded in 24 wells plates at a density of 10^4 cells per well and allowed to adhere for 24 hours. […] The drug was renewed every 2 days. Cell viability was then determined by neutral red assay, measuring absorbance at 550 nm.
After 6 days treatment, cells were seeded into 24 well plates at a density of 1×10^4 cells/wells. After 24 h, cells were treated with reagents or vehicle for up to six days. At the end of the incubation period, medium was removed and cells were incubated with neutral red solution (40 μg/ml in phenol red and serum free DMEM) for 2 h at 37° C. After removal of the neutral red solution, wells were rinsed once with 1 ml 4% formal saline containing 0.5% CaCl2. Plates were inverted on paper towel to drain and 200 μl of elution fluid (1% acetic acid in 50% ethanol) was added. Following incubation at room temperature for 30 min with gentle shaking, absorbance at 550 nm was determined
To accomplish this, cells were treated for up to 6 days with different concentrations of a BCL-2 inhibitor, ABT-263 ([…]). Non-treated cells were used as a control. After 6 days of treatment, cell viability was measured by neutral red assay (FIG. 16). In the three cell lines, BCL-2 inhibition leads to cell death. The IC50 is almost equivalent in all cell lines (1 μM+/−0.2 μM).
More particularly, FIG. 16 illustrates the effects of BCL-2 inhibition on MCF-7VD^R and HBL-100 viability. MDA-MB-231, MCF-7/VD^R and HBL-100 cells were treated for up to 6 days with different concentrations of ABT-263 (0.2 up to 20 μM). Non-treated cells were used as a control. After 6 days of treatment, cell viability was measured by neutral red assay. Results are mean of three independent experiments (each made in quadruplicate).

HBL-100 cells = assay: BCL-2 expression by immunoblotting, HBL-100; assay type: cell-based; details: 1 μM lenalidomide and 100 nM 1,25-D3 alone or in combination, 6 days, FIG. 15
Description: It has been shown in this paper that BCL-2 inhibition of expression seems to be a key event for the restoration of a sensitive vitamin D sensitive phenotype in MDA-MB-231. […] Cells were also treated with 0.1% DMSO as a control. Whole cells extracts were prepared and analysed by immuoblotting BCL-2 antibody. β-actin was used as a loading control.
More particularly, FIG. 15 illustrates the effects of co-treatment lenalidomide/1, 25-D3 on BCL-2 expression in MCF-7VDR and HBL-100 cells. MCF-7/VDR and HBL-100 cells were treated for up to 6 days with 1 μM lenalidomide and 100 nM 1, 25-D3 alone or in combination. Cells were also treated with 0.1% DMSO a control. Whole proteins were extracted and probes for BCL-2. β-actin was used as a loading control. Representative blots for the three experiments are shown.

breast cancer cell lines = details: literature (Colston et al.); cited from earlier work
MDA-MB-231 cells [3] = assay: Western blot of key signalling proteins (AKT, ERK1/2, VDR); assay type: cell-based; details: 1 μM lenalidomide co-treatment with 100 nM 1,25-D3, 6 days
Description: More particularly, FIG. 11 illustrates the effects of co-treatment lenalidomide/1, 25-D3 on expression of key signalling proteins in MDA-MB-231 cells. […] Cells were also treated with 0.1% DMSO as a control. Whole proteins were extracted and probed for total AKT (T-AKT), phosphor-AKT (P-AKT), total ERK1/2 (T-ERK1/2), phospho-ERK1/2 (P-ERK1/2), phosphor-p38 and total p38, VDR and b-actin as a house-keeping protein. Representative blots for the three experiments are shown.

MCF-7/VD^R cells [4] = assay: BCL-2 expression by immunoblotting, MCF-7/VD^R; assay type: cell-based; details: 1 μM lenalidomide and 100 nM 1,25-D3 alone or in combination, 6 days, FIG. 15
Description: Cells were also treated with 0.1% DMSO as a control. Whole cells extracts were prepared and analysed by immuoblotting BCL-2 antibody. β-actin was used as a loading control.
Cells were also treated with 0.1% DMSO a control. Whole proteins were extracted and probes for BCL-2. β-actin was used as a loading control.

MCF-7/VD^R cells [5] = assay: Cell viability by neutral red assay, MCF-7/VD^R; assay type: cell-based; details: up to 6 days
Source text: (§1) Non-treated cells were used as a control.
as §1

Compound | necrosis and apoptosis activation (propidium iodide and Annexin V staining) (MDA-MB-231 cells [1]; FIG. 8B) | apoptosis assessed by Annexin V or PI staining (MDA-MB-231 cells [1]; FIG. 5) | effect on cell viability (MDA-MB-231 cells [2]; 100 nM 1,25-D3 or 1 μM IMiD alone) | sensitivity of cell viability to vitamin D agent treatment (MDA-MB-231 cells [2]; 1,25 D3 0-100 nM, 7 days, FIG. 1) | effects on BCL-2 expression (HBL-100 cells) | IC50 values (breast cancer cell lines) | apoptosis assessed by Annexin V and PI staining (MDA-MB-231 cells [1]; 1 nM compound in combination with 100 nM 1,25 D3, up to 6 days, FIG. 5) | Annexin V staining (MDA-MB-231 cells [1]; 1 μM lenalidomide co-treatment with 100 nM 1,25-D3, up to 6 days, FIG. 8B) | AKT and ERK1/2 activation and VDR protein expression (MDA-MB-231 cells [3]) | effects on BCL-2 expression (MCF-7/VD^R cells [4]) | differences in viability (MCF-7/VD^R cells [5]; lenalidomide 0 μM up to 10 μM, FIG. 13, p>0.05) | differences in viability (MCF-7/VD^R cells [5]; lenalidomide 0.01-1 μM alone or in combination with 1,25-D3 0-1000 nM, FIG. 14, p>0.05) | effect on cell viability (MDA-MB-231 cells [2]; single agent, Thalidomide 0.01-100 μM, CC-4047 and lenalidomide 0.001-10 μM, FIG. 6A)
C=C1/C(=C\C=C2/CCC[C@]3(C)[C@@H]([C@H](C)CCCC(C)(C)O)CC[C@@H]23)C[C@@H](O)C[C@@H]1O [1,25-D3, 1α,25-dihydroxyvitamin D3] | no effects | no significant increase in apoptosis | no effect | resistant | no effects | in the nM region |  |  |  |  |  |  | 
Nc1cccc2c1CN(C1CCC(=O)NC1=O)C2=O (stereo not shown) [Lenalidomide, 1-oxo-2-(2,6-dioxopiperidin-3-yl)-4-aminoisoindoline] | no effects | no significant increase in apoptosis |  |  | no effects |  | significant increase in apoptosis | Annexin V staining was observed | No Effect | no effects | No significant differences | No significant differences | do not Affect
